Data: paper PMC6410202, “Dual Action of the PN159/KLAL/MAP Peptide: Increase of Drug Penetration across Caco-2 Intestinal Barrier Model by Modulation of Tight Junctions and Plasma Membrane Permeability” (Pharmaceutics, 2019)

Test system: Caco-2 cell layers
Assay: Penetration of marker and drug molecules across Caco-2 cell layers (Papp A-B)
Conditions: PN159 10 and 30 μM, 1-h treatment
Experimental: In the permeability experiments inserts with Caco-2 cell layers grown for 3 weeks were transferred to 12-well plates containing 1.5 mL Ringer–Hepes buffer in the lower (basal or acceptor) compartments. In the upper or apical compartments culture medium was replaced by 0.5 mL buffer containing peptide solutions: PN159 peptide at 1, 3, 10 and 30 μM concentrations and CPPs at 100 μM concentration. […] The incubation with permeability markers in the presence of PN159 peptide lasted for 30 min. In case of CPPs the incubation time with fluorescein was 1-h. Samples were collected from both compartments and the concentrations of the marker molecules were determined by a fluorescence multi-well plate reader (Fluostar Optima; excitation wavelength: 485 nm, emission wavelength: 535 nm in the case of fluorescein and excitation wavelength: 584 nm, emission wavelength: 680 nm in the case of Evans-blue labeled albumin). Fluorescein isothiocyanate (FITC)-labelled dextran marker molecules (Table 1) were used at 1 mM concentrations, and fluorescence intensities of collected samples were measured using a Fluorolog FL3-22 (Horiba Jobin Yvon, Paris, France) spectrofluorometer using 492 nm excitation wavelength, 515 nm emission wavelength, and 0.5 s integration time. Drugs were used at 10 μM concentrations and samples were measured by HPLC as described below. The apparent permeability coefficients (Papp) were calculated as described previously. Briefly, cleared volume was calculated from the concentration difference of the tracer in the basal compartments (Δ[C]B) after 30 min and apical compartments at 0 h ([C]A), the volume of the basal compartment (VB; 1.5 mL) and the surface area available for permeability (A; 1.1 cm^2).
Analytical measurements were performed on a Merck-Hitachi LaChrom HPLC system equipped with an ultraviolet (UV) and fluorescence detector (Merck, Darmstadt, Germany). All reagents used were of analytical reagent grade. […] In both cases 10μL sample was injected into the chromatographic system.
The chromatographic column was maintained at 40 °C and the 5 μL sample was injected onto the column.
The column temperature was maintained at 40 °C and a 20 μL sample was injected onto the chromatographic system. […] UV detection was set at 228 nm.

Question: Which “Permeability enhancement for fluorescein and albumin” value does the source give for `CC(C)C[C@H](NC(=O)[C@H](C)NC(=O)[C@H](CCCCN)NC(=O)[C@H](CC(C)C)NC(=O)[C@H](C)NC(=O)[C@H](CC(C)C)NC(=O)[C@H](CCCCN)NC(=O)[C@H](CC(C)C)NC(=O)[C@H](C)NC(=O)[C@H](CC(C)C)NC(=O)[C@@H](N)CCCCN)C(=O)N[C@@H](CCCCN)C(=O)N[C@@H](C)C(=O)N[C@@H](C)C(=O)N[C@@H](CC(C)C)C(=O)N[C@@H](CCCCN)C(=O)N[C@@H](CC(C)C)C(=O)N[C@@H](C)C(N)=O` [PN159] here?
Answer: most effective permeability enhancer activity
